Laboratory results: patent US20100317078A1, “METHODS TO IMPROVE ALCOHOL TOLERANCE OF MICROORGANISMS” (Cornell Research Foundation Inc, priority 2007, published 2010)
Several values for one entry are separate records, joined by “and”; a condition that tells them apart may be missing. Equal values may be shown once. Read-outs that look alike come from different tables or passages of the source.

Assays:
[1] = system: S. cerevisiae mutant derivative MVY#2015 (opi1)
Protocol: (§1) The method for examining ethanol tolerance using a plating technique was adapted from Chi et al. (Chi et al., “Role of Phosphatidylinositol (PI) in Ethanol Production and Ethanol Tolerance By a High Ethanol Producing Yeast,” J Industrial Microbiology Biotechnology 22:58-63 (1999), which is hereby incorporated by reference in its entirety). Inocula of wild type and opi1 yeast strains were prepared as previously described. Cells were centrifuged at 4,500 rpm for 5 min at 4° C. (Sorvall Legend R T, Kendro Laboratory Products, Asheville, N.C.), and the supernatant was removed. Cells were washed twice with −I media, centrifuged at 4,500 rpm for 5 min, and the resulting pellet was stored at 4° C.
(§2) The cell pellets were re-suspended in inositol-free media and the OD was measured. Cells were inoculated into a 500-mL polycarbonate Erlenmeyer flask containing 110-mL of synthetic media either containing (+I) or lacking inositol (−I) at a final OD of 0.1. The cell cultures were placed in an incubator-shaker at 30° C. and 250 rpm until the OD reached 0.5.
(§3) Two volumes of cell suspension containing 1×10^8 cells—previously determined by cell counting with a hemacytometer (Bright-Line Hemacytometer, Reichert Scientific Instruments, Buffalo, N.Y.)—were removed from the flasks and placed in separate sterile 50-mL centrifuge tubes. Cells were centrifuged at 4,500 rpm for 5 min at 4° C. and the supernatant was removed. Cells were washed twice with either −I or +I media as previously described, and the resulting supernatants were discarded. Ten mL of ethanol (10, 15 or 18% (v/v)) was added to one of the 50-mL centrifuge tubes containing a washed cell pellet and this represented the “shocked culture.” As a control, 10-mL of sterile water was added to the second 50-mL tube containing a washed cell pellet. Two 25-μl aliquots of the control culture were removed and plated on YPD plates, representing time zero of the experiment. Cell suspensions were transferred from 50-mL centrifuge tubes to 25-mL sterile glass tubes. The glass tubes were placed in an incubator-shaker at 30° C. and 250 rpm.
(§4) Samples of both the shocked and control cultures were taken every hour for 4 hr. Shocked cells were diluted in ethanol (10, 15, or 18%, consistent with the concentration of the shocked culture) at dilution factor of 1:1000. Control cells were diluted in sterile water at the same dilution factor. Duplicate 25-μl aliquots were plated on YPD plates for each sample of either shocked or control cell cultures over the 4 hr time course. All plates were placed in a 30° C. incubator. Colonies were counted on all plates after 48 and 72 hr. Duplicate plate counts were averaged. Ethanol tolerance of each strain, in terms of cell viability, in either +I or −I media over a range of ethanol concentrations, was expressed as a ratio of the number of colonies counted in the shocked culture at 72 hr to the number of colonies counted in the control culture at 72 hr. Cell viability in the control culture at time-zero of the experiment was assumed to be 100%.
(§5) Ethanol tolerance of each strain was calculated, in terms of cell viability (CV), using the number of colony forming units (CFUs) in the shocked and control cultures after 72 hr of incubation using the following equation:
(§6) Cell viability in the control culture at time-zero of the experiment was assumed to be 100%. All ethanol concentrations are volume-volume percentages (v/v), while all glucose concentrations are in weight-volume percentages (w/v).
(§7) To model the data presented in FIGS. 1 and 2 and to estimate specific death rates a simple first-order kinetic model was fitted to the data using the nonlinear parameter estimation tool in KaleidaGraph (Synergy Software, Reading, Pa.):
(§8) d=specific death rate, (hr^−1)

[2] = system: S. cerevisiae wild type diploid MVY#2008; settings: for Specific Death Rates in 2% Glucose (d): WT
Protocol: as §1, §2, §3, §4, §5, §6, §7, §8

[3] = system: S. cerevisiae mutant derivative MVY#2013 (opi1); settings: for increase in μ value for opi1 over wild type: 5% ethanol; for Specific Growth Rates in 2% Glucose (μ) / Specific Growth Rates in 12% Glucose (μ): 5% Ethanol
Protocol: (§9) The method for examining ethanol tolerance by profiling yeast growth was adapted from You et al. (You et al., “Ethanol Tolerance in the Yeast Saccharomyces cerevisiae is Dependent on Cellular Oleic Acid Content,” Applied Environ Microbiology 69:1499-1503 (2003), which is hereby incorporated by reference in its entirety). Inocula of wildtype and opi1 yeast strains were prepared as previously described (see Plating Assays) except a Marathon 21K/BR bench top centrifuge (Fisher Scientific, Inc., Hampton, N.H.) was used. The cell pellet was suspended in —I media and the OD was measured by pipetting […] of the cell suspension into a clean well of a 96 well plate and reading OD in a plate reader (Synergy HT Multidetection Microplate Reader, Bio-Tek Instruments, Inc., Winooski, Vt.).
(§10) Cells were inoculated into 125-mL polycarbonate Erlenmeyer flasks with 50-mL of +I or −I containing either 2% or 12% glucose and 0 or 5% ethanol, at a final OD of 0.05. Each media type was performed in triplicate for both yeast strains. Flasks were placed in an incubator-shaker at 30° C. and 250 rpm (Gyratory Waterbath Shaker, New Brunswick Scientific, Edison, N.J.). The OD of each culture was measured over a period of at least 36 hr or until the cell density had stabilized for a period of no less than 12 hr. Triplicate OD measurements were performed for each sample and measurements were averaged.
(§11) Specific growth rate, or the growth rate over time per unit of biomass, was calculated in order to provide a quantitative assessment of the impact of experimental conditions on growth rate. Specific growth rates were estimated for both yeast strains for all of the conditions mentioned using the following first order kinetic equation:
(§12) μ=specific growth rate, (hr^−1)
(§13) This equation was fit to the data presented in FIGS. 3 through 6 using the nonlinear parameter estimation tool in KaleidaGraph.

[4] = system: S. cerevisiae wild type haploid MVY#19; settings: WT, 5% Ethanol
Protocol: as §9, §10, §11, §12, §13

CCO [Ethanol, ethanol]
d of opi1 in 18% ethanol, lower than d of wild type in 15% ethanol ([1]; both grown in +I media): 38% | specific death rate d ([1]; opi1, 10% ethanol, with or without inositol in growth media): less than 0.1 hr^−1 | increase of d after growth in −I media in comparison to +I media ([1]; opi1, 15% ethanol): 11% | Specific Death Rates in 2% Glucose (d) ([1]; opi1, grown in I+ media, shocked in 10% Ethanol): 0.036 h⁻¹ | Specific Death Rates in 2% Glucose (d) ([1]; opi1, grown in I+ media, shocked in 15% Ethanol): 0.71 h⁻¹ | Specific Death Rates in 2% Glucose (d) ([1]; opi1, grown in I+ media, shocked in 18% Ethanol): 1.61 h⁻¹ | Specific Death Rates in 2% Glucose (d) ([1]; opi1, grown in I− media, shocked in 10% Ethanol): 0.006 h⁻¹ | Specific Death Rates in 2% Glucose (d) ([1]; opi1, grown in I− media, shocked in 15% Ethanol): 0.79 h⁻¹ | d of wild type cells relative to opi1 cells ([2]; 15% ethanol after growth in +I media): over 3.5 times | d of wild type cells relative to opi1 cells ([2]; 15% ethanol after growth in −I media): nearly four times | Specific Death Rates in 2% Glucose (d) ([2]; grown in I+ media, shocked in 10% Ethanol): 0.084 h⁻¹ | Specific Death Rates in 2% Glucose (d) ([2]; grown in I+ media, shocked in 15% Ethanol): 2.61 h⁻¹ | Specific Death Rates in 2% Glucose (d) ([2]; grown in I+ media, shocked in 15% Ethanol, listed as ethanol): 2.61 h⁻¹ and 3.14 h⁻¹ | Specific Death Rates in 2% Glucose (d) ([2]; grown in I− media, shocked in 10% Ethanol): 0.049 h⁻¹ | Specific Death Rates in 2% Glucose (d) ([2]; grown in I− media, shocked in 15% Ethanol): 3.14 h⁻¹ | Specific Death Rates in 2% Glucose (d) ([2]; grown in I− media, shocked in 15% Ethanol, listed as ethanol): 3.14 h⁻¹ and 2.61 h⁻¹ | specific death rate d ([2]; wild type, 10% ethanol, with or without inositol in growth media): less than 0.1 hr^−1 | d after growth in −I media higher than after growth in +I ([2]; wild type, 15% ethanol): 20% | increase in μ value for opi1 over wild type ([3]; +I media, 2% glucose): 5% | increase in μ value for opi1 over wild type ([3]; +I media, 12% glucose): 16% | increase in μ value for opi1 over wild type ([3]; −I media, 2% glucose): 57% | increase in μ value for opi1 over wild type ([3]; −I media, 12% glucose): 33% | Specific Growth Rates in 2% Glucose (μ) ([3]; opi1, I+ media, 2% glucose): 0.118 ± 0.012 h⁻¹ | Specific Growth Rates in 12% Glucose (μ) ([3]; opi1, I+ media, 12% glucose): 0.127 ± 0.007 h⁻¹ | Specific Growth Rates in 2% Glucose (μ) ([3]; opi1, I− media, 2% glucose): 0.102 ± 0.011 h⁻¹ | Specific Growth Rates in 12% Glucose (μ) ([3]; opi1, I− media, 12% glucose): 0.076 ± 0.010 h⁻¹ | Specific Growth Rates in 2% Glucose (μ) ([4]; I+ media): 0.111 ± 0.007 h⁻¹ | Specific Growth Rates in 12% Glucose (μ) ([4]; I+ media): 0.109 ± 0.010 h⁻¹ | Specific Growth Rates in 2% Glucose (μ) ([4]; I− media): 0.065 ± 0.004 h⁻¹ | Specific Growth Rates in 12% Glucose (μ) ([4]; I− media): 0.057 ± 0.007 h⁻¹
